Measured values reported in patent US8293774B2, “Optically active (R)-aryloxypropionic acid amides and herbicidal composition comprising same” (Kyung Nong Corporation, priority 2007, dated 2012).

What was measured:
[1] = system: ORYSA (Oryza sativa cv. Dongjin, rice); assay: Weed control test, foliage treatment (Test Example 1, Table 7); settings: in vivo
Experimental: (§1) Seeds of rice, wheat, soy bean, barley, corn, common sorgum, barnyard grass, large crabgrass, creek grass, green foxtail and fall panicum were placed in sandy loam in 600 cm^2 pots and covered with soil. After keeping the pots in a greenhouse at 20 to 30° C. allowing growth of the plants to the 3-leaf stage of the barnyard grass, 2,000 l/ha of an emulsion obtained by diluting with water a mixture of 1 part by weight of a test compound, 5 parts by weight of acetone and 1 part by weight of an emulsifying agent (Tween 80, Junsei) was applied to the surface of the foliage of the plants. The plant damage at 10 days and 20 days after the foliage treatment was visually evaluated from the level of 1 to 100% by comparison with the untreated control: […]

[2] = system: TRZAW (Tritium aestivum L., wheat); assay: as above; settings: in vivo
Experimental: as §1

[3] = system: GLXMA (Glycine max(L.) MERR, soy bean); assay: as above; settings: in vivo
Experimental: as §1

[4] = system: HORVU (Hordeum vulgare L., barley); assay: as above; settings: in vivo
Experimental: as §1

[5] = system: PANDI (Panium dichotomiflorum Michx, fall panicum); assay: as above; format: in vivo; settings: Panicum dichotomiflorum, foliar, read-out: Plant damage (herbicidal activity), visually evaluated, PANDI; for pest or weed control at 25 g/ha: 0.025 kg/ha; for pest or weed control at 100 g/ha: 0.1 kg/ha; for pest or weed control at 200 g/ha: 0.2 kg/ha
Experimental: as §1

[6] = system: ECHOG (Echinoch crus-galli Beauv. var. caudata Kitagawa, barnyard grass); assay: as above; format: in vivo; settings: Echinochloa crus-galli, foliar, 3-leaf stage, read-out: Plant damage (herbicidal activity), visually evaluated, ECHOG; for pest or weed control at 25 g/ha: 0.025 kg/ha; for pest or weed control at 100 g/ha: 0.1 kg/ha; for pest or weed control at 200 g/ha: 0.2 kg/ha
Experimental: as §1

[7] = system: SETVIR (Setaria viridis (L.) Beauv, green foxtail); assay: as above; format: in vivo; settings: Setaria viridis, foliar, read-out: Plant damage (herbicidal activity), visually evaluated, SETVIR; for pest or weed control at 25 g/ha: 0.025 kg/ha; for pest or weed control at 100 g/ha: 0.1 kg/ha; for pest or weed control at 200 g/ha: 0.2 kg/ha
Experimental: as §1

[8] = system: DIGSA (Digitaria Sanguinalis (L.) SCOP, large crabgrass); assay: as above; format: in vivo; settings: Digitaria sanguinalis, foliar, read-out: Plant damage (herbicidal activity), visually evaluated, DIGSA; for pest or weed control at 25 g/ha: 0.025 kg/ha; for pest or weed control at 100 g/ha: 0.1 kg/ha; for pest or weed control at 200 g/ha: 0.2 kg/ha
Experimental: as §1

[9] = system: SORBI (Andropogon sorghum, common sorgum); assay: as above; format: in vivo; settings: Sorghum bicolor, foliar, read-out: Plant damage (herbicidal activity), visually evaluated, SORBI; for pest or weed control at 25 g/ha: 0.025 kg/ha; for pest or weed control at 100 g/ha: 0.1 kg/ha; for pest or weed control at 200 g/ha: 0.2 kg/ha
Experimental: as §1

[10] = system: ZEAMX (Zea mays L., corn); assay: as above; format: in vivo; settings: Zea mays, foliar, read-out: Plant damage (herbicidal activity), visually evaluated, ZEAMX; for plant injury at 25 g/ha: 0.025 kg/ha; for plant injury at 100 g/ha: 0.1 kg/ha; for plant injury at 200 g/ha: 0.2 kg/ha
Experimental: as §1

[11] = system: ARTHIS (Arthraxon hispidus (Thunb.) Makino, creek grass); assay: as above; format: in vivo; settings: Arthraxon hispidus, foliar, read-out: Plant damage (herbicidal activity), visually evaluated, ARTHIS; for pest or weed control at 25 g/ha: 0.025 kg/ha; for pest or weed control at 100 g/ha: 0.1 kg/ha; for pest or weed control at 200 g/ha: 0.2 kg/ha
Experimental: as §1

[12] = system: Barnyard grass; assay: Weed control test, 4-leaf stage plants (Test Example 1, Table 8); format: in vivo, Echinoch crus-galli Beauv. var. caudata Kitagawa
Text: as §1, with “[…],” for “After keeping the pots in a greenhouse at 20 to 30° C. allowing growth of the plants to the 3-leaf stage of the barnyard grass,”

Row | Compound | Plant damage (herbicidal activity), visually evaluated, TRZAW [2] [%] | Plant damage (herbicidal activity), visually evaluated, GLXMA [3] [%] | Plant damage (herbicidal activity), visually evaluated, HORVU [4] [%] | pest or weed control at 25 g/ha [5] [%] | pest or weed control at 100 g/ha [5] [%] | pest or weed control at 200 g/ha [5] [%] | pest or weed control at 25 g/ha [6] [%] | pest or weed control at 100 g/ha [6] [%] | pest or weed control at 200 g/ha [6] [%] | pest or weed control at 25 g/ha [7] [%] | pest or weed control at 100 g/ha [7] [%] | pest or weed control at 200 g/ha [7] [%] | pest or weed control at 25 g/ha [8] [%] | pest or weed control at 100 g/ha [8] [%] | pest or weed control at 200 g/ha [8] [%] | pest or weed control at 25 g/ha [9] [%] | pest or weed control at 100 g/ha [9] [%] | pest or weed control at 200 g/ha [9] [%] | plant injury at 25 g/ha [10] [%] | plant injury at 100 g/ha [10] [%] | other results
1 | Cc1ccc(C=C(F)Oc2ccc(O[C@H](C)C(=O)Nc3ccccc3F)cc2)cc1 [Example 41, (R)-2-[4-(1-fluoro-2-(4-methylphenyl)vinyloxy)phenoxy]propionic acid-N-(2-fluorophenyl)amide] | 0 | 0 | 0 | 20 | 70 | 70 | 0 | 0 | 20 | 0 | 20 | 70 | 0 | 0 | 50 | 0 | 0 | 0 | 0 | 0 | Plant damage (herbicidal activity), visually evaluated, ORYSA [1]: 0%; plant injury at 200 g/ha [10]: 20%; pest or weed control at 25 g/ha [11]: 0%; pest or weed control at 100 g/ha [11]: 0%; pest or weed control at 200 g/ha [11]: 20%
2 | COc1ccc2nc(NC(=O)[C@@H](C)Oc3ccc(Oc4ccc(C#N)cc4F)cc3)sc2c1 [Example 27, (R)-2-[4-(4-cyano-2-fluorophenoxy)phenoxy]propionic acid-N-(6-methoxy-2-benzothiazolyl)amide] | 0 | 0 | 0 | 0 | 0 | 10 | 20 | 70 | 90 | 0 | 0 | 20 | 0 | 20 | 90 | 0 | 20 | 20 | 10 | 90 | plant injury at 200 g/ha [10]: 90%; pest or weed control at 25 g/ha [11]: 0%; pest or weed control at 100 g/ha [11]: 0%; pest or weed control at 200 g/ha [11]: 10%
3 | Cc1ccnc(NC(=O)[C@@H](C)Oc2ccc(Oc3ccc(C#N)cc3F)cc2)c1 [Example 33, (R)-2-[4-(4-cyano-2-fluorophenoxy)phenoxy]propionic acid-N-(4-methyl-2-pyridinyl)amide] | – | – | – | – | – | – | – | – | – | – | – | – | – | – | – | – | – | – | – | – | Plant damage (herbicidal activity), visually evaluated, Barnyard grass ([12]; 0.025 kg/ha): 10%; Plant damage (herbicidal activity), visually evaluated, Barnyard grass ([12]; 0.05 kg/ha): 40%; Plant damage (herbicidal activity), visually evaluated, Barnyard grass ([12]; 0.1 kg/ha): 100%; Plant damage (herbicidal activity), visually evaluated, Barnyard grass ([12]; 0.4 kg/ha): 100%
